Here are results for six compounds from patent US20140243335A1, “SUBSTITUTED HYDOXAMIC ACIDS AND USES THEREOF” (Millennium Pharmaceuticals, Inc., priority 2010, published 2014).

In the experiment the target is T1, purified human HDAC6 (Homo sapiens, UniProt Q9UBN7).
T1 construct: purchased BPS Bioscience 5006
T1 sequence (Q9UBN7 1-1215): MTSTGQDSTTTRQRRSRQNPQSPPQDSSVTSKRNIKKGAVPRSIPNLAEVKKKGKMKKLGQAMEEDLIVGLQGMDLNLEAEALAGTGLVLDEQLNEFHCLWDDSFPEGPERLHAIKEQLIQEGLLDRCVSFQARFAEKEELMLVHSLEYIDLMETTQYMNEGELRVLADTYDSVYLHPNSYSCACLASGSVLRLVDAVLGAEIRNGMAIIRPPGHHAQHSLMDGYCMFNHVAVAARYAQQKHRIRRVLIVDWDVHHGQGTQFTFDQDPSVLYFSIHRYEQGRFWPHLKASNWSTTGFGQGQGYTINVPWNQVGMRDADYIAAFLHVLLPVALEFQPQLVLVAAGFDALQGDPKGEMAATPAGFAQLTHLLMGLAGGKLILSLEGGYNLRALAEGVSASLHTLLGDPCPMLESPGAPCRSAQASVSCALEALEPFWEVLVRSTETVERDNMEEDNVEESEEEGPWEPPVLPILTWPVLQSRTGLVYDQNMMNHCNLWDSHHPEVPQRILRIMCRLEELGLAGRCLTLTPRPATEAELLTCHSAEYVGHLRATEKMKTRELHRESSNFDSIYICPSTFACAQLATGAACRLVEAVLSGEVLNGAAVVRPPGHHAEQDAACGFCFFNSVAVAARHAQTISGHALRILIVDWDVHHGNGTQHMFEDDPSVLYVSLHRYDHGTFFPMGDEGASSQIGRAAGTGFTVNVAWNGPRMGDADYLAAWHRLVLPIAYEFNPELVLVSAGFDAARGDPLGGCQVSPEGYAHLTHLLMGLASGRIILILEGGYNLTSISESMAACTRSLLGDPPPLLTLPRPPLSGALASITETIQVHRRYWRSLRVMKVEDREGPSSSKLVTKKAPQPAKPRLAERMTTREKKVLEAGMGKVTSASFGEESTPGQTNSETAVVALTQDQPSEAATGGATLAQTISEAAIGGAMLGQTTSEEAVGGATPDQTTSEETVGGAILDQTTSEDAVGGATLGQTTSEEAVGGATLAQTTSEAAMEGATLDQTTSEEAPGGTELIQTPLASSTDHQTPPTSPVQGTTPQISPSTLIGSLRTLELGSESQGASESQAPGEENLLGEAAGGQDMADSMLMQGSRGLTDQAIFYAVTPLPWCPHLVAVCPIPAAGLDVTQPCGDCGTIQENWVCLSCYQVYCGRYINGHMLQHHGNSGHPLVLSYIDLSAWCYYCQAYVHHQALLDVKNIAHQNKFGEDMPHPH
The experiment in a line: HDAC6 Enzyme Assay. Format: biochemical. The conditions noted are these: HDAC6 inhibition at a compound concentration of 0.412 μM; read-out: Percent Inhibition at 0.412 μM.

Take `CC(C)(C)OC(=O)N1CCC(C(=O)Nc2cc(OC3CCc4cc(C(=O)NO)ccc4C3)ccn2)CC1` (stereo not drawn) [Compound I-224, tert-butyl 4-({[4-({6-[(hydroxyamino)carbonyl]-1,2,3,4-tetrahydronaphthalen-2-yl}oxy)pyridin-2-yl]amino}carbonyl)piperidine-1-carboxylate]: the inhibition at 0.412 µM worked out at 94%. The value for `O=C(NO)c1ccc2c(c1)CCC(Oc1ccnc(NC(=O)C3CCNCC3)c1)C2` (stereo not drawn) [Compound I-225, N-[4-({6-[(hydroxyamino)carbonyl]-1,2,3,4-tetrahydronaphthalen-2-yl}oxy)pyridin-2-yl]piperidine-4-carboxamide] was 95%. For `CCN(CC)CCNC(=O)c1cc(OC2CCc3cc(C(=O)NO)ccc3C2)ccn1` (stereo not drawn) [Compound I-226, N-[2-(diethylamino)ethyl]-4-({6-[(hydroxyamino)carbonyl]-1,2,3,4-tetrahydronaphthalen-2-yl}oxy)pyridine-2-carboxamide] the value was 93%; for `CCN1CCC(NC(=O)c2cc(OC3CCc4cc(C(=O)NO)ccc4C3)ccn2)CC1` (stereo not drawn) [Compound I-227, N-(1-ethylpiperidin-4-yl)-4-({6-[(hydroxyamino)carbonyl]-1,2,3,4-tetrahydronaphthalen-2-yl}oxy)pyridine-2-carboxamide], 95%. The value for `O=C(NO)c1ccc2c(c1)CCC(Oc1ccnc(Nc3ccc(Cl)cc3)c1)C2` (stereo not drawn) [Compound I-228, 6-({2-[(4-chlorophenyl)amino]pyridin-4-yl}oxy)-N-hydroxy-5,6,7,8-tetrahydronaphthalene-2-carboxamide] was 90%; that for `O=C(NO)c1ccc2c(c1)CCC(Oc1ccccc1)C2` (stereo not drawn) [Compound I-229, N-hydroxy-6-phenoxy-5,6,7,8-tetrahydronaphthalene-2-carboxamide] was 92%.

As a reminder, the inhibition is the relative decrease from the control value, in per cent.
